Earlier results on two compounds are cited in US6306864A, “Atropisomers of 3-aryl-4(3H)-quinazolinones and their use as AMPA-receptor antagonists” (Pfizer Inc., priority 2000, dated 2001).

Data set [1] has as its system global and focal ischemic damage. Particulars: focal and global ischemia models.
The subject of data set [2] is rat global ischemia models.

For the compound `NS(=O)(=O)c1cccc2c1c([N+](=O)[O-])cc1[nH]c(=O)c(=O)[nH]c12` [NBQX, 2,3-dihydroxy-6-nitro-7-sulfamoylbenzo[f-]quinoxaline], in data set [1], the “prevention of global and focal ischemic damage” value is “effective in preventing global and focal ischemic damage”.
As for `CC1=NN=C(c2ccc(N)cc2)c2cc3c(cc2C1)OCO3` [GKYI 52466], the “neuroprotection in rat global ischemia models” value in data set [2] was “effective neuroprotective agent”.
